The source of these data is patent US20250092360A1, “METHODS AND COMPOSITIONS FOR GENERATING SOMATOSTATIN+ INTERNEURONS FROM HUMAN FOREBRAIN NEURAL PROGENITOR CELLS” (Trailhead Biosystems Inc., priority 2023, published 2025).

“Also recorded” adds a separate entry of the source.

Assay [1] deals with human pluripotent stem cells. In words: HD-DoE stage 1, first 12-factor experiment: gene expression (qPCR) after 3-day treatment. Type of assay: cell-based. As to conditions: for impact on expression of OTX2: dynamic profile / model; for factor contribution, expression of SIX3 / factor contribution, expression of FEZF2: positive impact; for factor contribution, expression of SIX3: model optimized for maximal SIX3, 3-day treatment, qPCR; for factor contribution, expression of FEZF2: model optimized for maximum FEZF2 at 3576. The source says: This example utilizes a method of High-Dimensional Design of Experiments (HD-DoE), as previously described in Bukys et al. (2020) […] 23:101346. The method employs computerized design geometries to simultaneously test multiple process inputs and offers mathematical modeling of a deep effector/response space. The method allows for finding combinatorial signaling inputs that control a complex process, such as during cell differentiation. It allows testing of multiple plausible critical process parameters, as such parameters impact output responses, such as gene expression. Because gene expression provides hallmark features of the phenotype of, for example, a human cell, the method can be applied to identify, and understand, which signaling pathways control cell fate. In the current example, the HD-DOE method was applied with the intent to find conditions for induction of […] neural progenitor-expressed genes, directly from the pluripotent stem cell state. To develop the recipe for each stage, the impact of agonists and antagonists of multiple signaling pathways (herein called effectors) on the expression of two sets of 53 pre-selected genes, after a 3-day treatment, has been tested and modeled. These effectors are small molecules or proteins that are commonly used during stepwise differentiation of stem cells to specific fates. Choice of the effectors were based on current literature on neural induction in forebrain region of developing brain and differentiation of stem cells to neural progenitors. To test the effectors, experiments with at least 8 factors were designed that can assess the response of cells to 48 or more different combinations of effectors in a range of concentrations. To analyze the models, we focused on expression of genes involved in development and patterning of the anterior neuroectoderm and forebrain including OTX2 (Hoch et al. (2015) Cell Reports 12:482-494), SIX3 (Lagutin et al. (2003) Genes & Development 17:368-379) and FEZF2 (Zhang et al. (2014) Development 141:4794-[…]). At later stages we focused on dorsoventral patterning of telencephalon and gene expressed in ventral forebrain including NKX2-1 and absence of PAX6 which is a dorsal forebrain marker (Stoykova et al. (2000) J. Neurosci. 20:8042-8050). The impact of each effector on gene expression level is defined by a parameter called factor contribution that is calculated for each effector during the modeling. To identify the recipe for stage 1 of differentiation, 96 different combinations of effectors generated using Design-of-Experiments compression through D-optimality were robotically prepared. The effector combinations were prepared in a basal media and were subsequently added to the cells, which were then allowed to differentiate. Three days later RNA extraction was performed, and gene expression was obtained using quantitative PCR analysis. The data were normalized and modeled using partial least squares regression analysis to the effector design, resulting in the generation of gene-specific models, which after model tuning for maximal Q2 predictive power, provided explanation of the effectors ability to control the expression of individual genes, combinatorically, and individually. Solutions within the tested space could then be explored to address desirability. Optimizing for maximal expression of SIX3 at 3300 and FEZF2 1355 expression values led to robust solutions. This model was derived from testing 12 effectors including AGN193109, LDN193189, CHIR99021, XAV939, IGF2, Purmorphamine, 4-oxo-RA, TTNPB, SR11237, FGF8, PD0325901 and […]. […] The model was also optimized for maximum expression of FEZF2 separately at 3576 expression value to find any additional factors that can boost expression of forebrain genes. […] To find the set of factors that have the potential to optimize all 3 genes in this experiment, a new assessment was done through dynamic profile analysis with focus on maximal expression of OTX2, FEZF2 and SIX3.
(In qPCR the cycle at which signal appears reflects the starting amount.)

For assay [2], the system named is forebrain-committed neural stem cells. Description: HD-DoE stage 2, 12-factor experiment: NKX2-1 expression. Type of assay: cell-based, human. To be noted: model / dynamic profile, in words. In outline: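 Forebrain-committed neural stem cells were treated for 3 days after stage 1 in a 12-factor high-dimensional DoE (LDN193189, BMP7, PD0325901, MK2206, A8301, XAV939, CHIR99021, purmorphamine, SANT-1, AGN193109, TTNPB, GSI-XX) to drive ventral forebrain identity. The read-out was NKX2-1 expression. Dynamic profile modelling also targeted minimal PAX6 and NKX2-2.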

For assay [3], the system named is human pluripotent stem cells. In words: Factor criticality analysis, stage 1 recipe (dynamic profile analysis). It is filed as cell-based. To be noted: other five stage 1 factors present, FIG. 11; for expression level of FEZF2 when the factor is removed: 2000 with all six factors; for expression level of SIX3 when the factor is removed: 3000 with all six factors; for expression level of OTX2 when the factor is removed: 5500 with all six factors. The source says:
To assess the impact of the elimination of each validated factor, dynamic profile analysis was used and compared the expression level of genes of interest in absence of each finalized factor while others are present. […] When Purmorphamine was removed, levels of FEZF2 and SIX3 were decreased to 1000 and below 3000, while levels of OTX2 increased to 6500.

For assay [4], the system named is human pluripotent stem cells. Description: HD-DoE stage 1, additional experiment: FEZF2 expression. Type of assay: cell-based. To be noted: for impact on expression of FEZF2: dynamic profile, in words; for factor contribution, expression of FEZF2: positive impact, additional stage 1 experiment optimized for FEZF2. A digest of the protocol:
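Human pluripotent stem cells were exposed for three days to DoE-designed combinations of effectors in basal medium, including LDN193189, PD173074, BLU9931, purmorphamine, CHIR99021, XAV939, tofacitinib and GO6983 among others. Gene expression was measured by qPCR. Values were normalized and modelled by partial least squares regression against the effector design.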

[5] abbreviates: dynamic profile analysis, in words.

Take `c1ccc2c(-c3cnn4cc(-c5ccc(N6CCNCC6)cc5)cnc34)ccnc2c1` [LDN193189]: the “factor contribution, important input for high expression of SIX3” value in assay [1] (FIG. 2 legend) turned out to be 24.9. Also, in assay [1] (in words), the “impact on expression of OTX2” value was “positive impact”. For the same compound, in assay [1] (positive effector, model optimized for maximum OTX2 at 6348), the “factor contribution, expression of OTX2” value was determined as 8. For the same compound, in assay [1], the “factor contribution, expression of SIX3” value was determined as 16 and the “factor contribution, expression of FEZF2” value is on record as 25. The “impact on expression of NKX2-1” value in assay [2] was “increase”. In addition, in assay [3], the “expression level of FEZF2 when the factor is removed” value (“expression level of FEZF2” for short) was found to be 1000, the “expression level of SIX3 when the factor is removed” value (“expression level of SIX3” below) worked out at 0 and the “expression level of OTX2 when the factor is removed” value (from here on “expression level of OTX2”) is 4000. In assay [4], the “impact on expression of FEZF2” value was “positive impact” and the “factor contribution, expression of FEZF2” value was determined as 18.

`O=C(NOC[C@H](O)CO)c1ccc(F)c(F)c1Nc1ccc(I)cc1F` [PD0325901]: the “impact on expression of OTX2” value in assay [1] (in words) is reported as “positive impact”. In addition, the “factor contribution, expression of FEZF2” value in assay [1] is given as 10. Besides, in assay [2], the “impact on expression of NKX2-1” value is recorded as “increase; also recorded: Positive impact”. For the same compound, in assay [3], the “expression level of FEZF2” value is “drop”, the “expression level of SIX3” value is “did not have a significant impact” and the “expression level of OTX2” value is “did not have a significant impact”. In assay [4], the “impact on expression of FEZF2” value is reported as “positive impact” and the “factor contribution, expression of FEZF2” value is on record as 15.

Take `c1ccc2c(Oc3nc(Nc4ccc(N5CCOCC5)cc4)c4ncn(C5CCCCC5)c4n3)cccc2c1` [Purmorphamine]: in assay [1] (in words), the “impact on expression of OTX2” value is “negative effect”. In assay [1] (setting [5]), the “impact on expression of FEZF2” value is “positive impact” and the “impact on expression of SIX3” value is “positive impact”. For the same compound, in assay [1], the “factor contribution, expression of SIX3” value is on record as 5 and the “factor contribution, expression of FEZF2” value is 7. Further, the “impact on expression of NKX2-1” value in assay [2] is recorded as “increase”. In assay [3], the “expression level of FEZF2” value is recorded as 1000, the “expression level of SIX3” value is recorded as “below 3000” and the “expression level of OTX2” value is on record as 6500. In addition, in assay [4], the “impact on expression of FEZF2” value is on record as “positive impact” and the “factor contribution, expression of FEZF2” value amounted to 11.
